Reference: US11066444B2, “BMP-2-binding peptide amphiphile nanofibers” (Northwestern University, priority 2014, dated 2021)
Several values for one entry are separate records, joined by “and”; a condition that tells them apart may be missing. Identical values can stand only once. Residues, ends and D or L forms follow the SMILES beside them. *: point of attachment. Lauroyl = CCCCCCCCCCCC(=O)*

Columns and labels:
[1] = Critical micelle concentration by Nile red fluorescent probe assay; type: physicochemical; conditions: pH 7.4, Nile red
Description: To assess PA nanofiber stability, we measured the critical micelle concentration (CMC) of PAs by Nile red fluorescent probe assay (Boekhoven, A. M. Brizard, P. van Rijn, M. C. A. Stuart, R. Eelkema, J. H. van Esch, Angewandte Chemie (International ed in English) 2011, 50, 12285; herein incorporated by reference in its entirety). At pH 7.4, the supramolecular assembly of the BMP-2-binding PA was detected at above 666 nM (1.5 μg/mL), and that of the diluent PA was detected at above 1 μM (1.2 μg/mL) (FIG. 3). The binding affinities of the PAs to BMP-2 were investigated by surface plasmon resonance (SPR) using hexahistidine-tagged BMP-2 (His-BMP-2) that was immobilized on the surface via nickel (II)-nitrilotriacetic acid (Ni^2+-NTA) chelation (Knecht, D. Ricklin, A. N. Eberle, B. Ernst, J. Mol. Recognit. 2009, 22, 270; herein incorporated by reference in its entirety). As a control, the BMP-2-binding PA (1 μm, pH 7.4) was injected to a bare NTA-dextran chip, and we observed non-specific binding of the PA to the surface (FIG. 4). […]
Critical micelle concentration measurements were performed using Nile Red fluorescence spectroscopy. […] These samples were vortexed, sonicated, and were allowed to equilibrate for 24 hours before fluorescence spectra were obtained. For pH 8.5, PA samples were horn sonicated prior to the addition of Nile Red, and fluorescence spectra were obtained the same day.

C2C12 cells [2] = experiment: Cell cytotoxicity assay (LDH release, live/dead); type: cell-based; conditions: 10 μg/mL, 5 h, without BMP-2
Description: C2C12 cells were treated with 10 μg/mL heparin or PAs for 5 h (Day 0), and a fraction of the media was collected to measure the presence of lactate dehydrogenase (LDH), a cytosolic enzyme only released upon cell lysis, using CytoTox 96 Non-Radioactive Cytotoxicity Assay (Promega, Madison, Wis.) (n=6). In addition, the remaining cells were stained for viable and dead cells using LIVE/DEAD Viability/Cytoxocity Kit (Invitrogen, Grand Island, N.Y.).

C2C12 cells [3] = experiment: Alkaline phosphatase (ALP) stain, BMP-2-induced osteoblast differentiation; type: cell-based; conditions: 50 ng/mL BMP-2, PA or heparin 0.1-10 μg/mL, 3 days
Description: (§1) C2C12 pre-myoblasts were maintained and treated with BMP-2 as depicted in FIG. 5A. C2C12 cells were seeded at 2×10^4 cells/cm2 in 24-well plates in growth media (DMEM with 10% heat-inactivated FBS and 100 U/mL penicillin/streptomycin, P/S) 1 day before treatment. On the following day (Day 0), growth media was replaced with 900 μL maintenance media (growth media with 2.5% FBS) and 100 μL treatment media containing BMP-2 with heparin or PAs. Preparation of the treatment media was as follows: 2.5 μL of BMP-2 stock ([…]) was mixed with 5 μL of heparin or PA stock solutions (0.02, 0.2, or 2 mg/mL), incubated for 5 min on ice, then mixed with DMEM (100 U/mL P/S) to a final volume of 100 μL, followed by 5 min incubation on ice. For treatments with BMP-2 only, the treatment media was prepared according to the method described except without heparin or PAs. Final working concentrations were 50 ng/mL BMP-2 and a range of 0.1, 1, to 10 μg/mL heparin or PAs.
The presence of ALP was stained as a marker for osteoblast differentiation on day 3 by enzymatic labeling described by Mason and Woolston (herein incorporated by reference in its entirety). C2C12 cell layer was fixed with 4% paraformaldehyde (PFA) for 30 s, washed with PBS three times, and stained for 1 h with Naphthol AS-MX phosphate (Sigma-Aldrich, St. Louis, Mo.) and Fast Blue BB salt (Sigma-Aldrich) in 0.1M Tris-HCl at pH 8.2, followed by washing with PBS.

C2C12 cells [4] = experiment: Real-time PCR of osteogenic genes (Runx2, Osx, Ocn); type: cell-based; conditions: 50 ng/mL BMP-2, 10 μg/mL, 2 days
Description: C2C12 cells were treated with 50 ng/ml BMP-2 in the presence of 10 μg/mL heparin or PAs until Day 2, and the osteogenic gene expression levels were determined by real-time PCR as described by Zhao et al. (n=4, in triplicate experiments). Briefly, total RNAs were isolated from cells using TRIzol (Invitrogen) and reverse-transcribed using iScript Reverse Transcription Supermix (Bio-Rad, Des Plaines, Ill.). PCR amplification was analyzed with iQ5 Real-Time PCR Detection System (Bio-Rad) using iQ SYBR Green Supermix (Bio-Rad) and the following primers: Runx2 types II & III (Runx2), 5′-[…]-3′(SEQ ID NO:5) and 5′-CCAAAAGAAGCTTTGCTG-3′ (SEQ ID NO:6); Osterix (Osx), 5′-[…]-3′(SEQ ID NO:7) and 5′-[…]-3′(SEQ ID NO:8); Osteocalcin (Ocn), 5′-[…]-3′(SEQ ID NO:9) and 5′-[…]-3′(SEQ ID NO:10); and Glyceraldehyde-3-phosphate dehydrogenase (GAPDH), 5′-[…]-3′(SEQ ID NO:11) and 5′-[…]-3′(SEQ ID NO:12) (IDT, Coralville, Iowa). For PCR amplification, cDNA was denatured at 94° C. for 5 min, then underwent 40 repeated cycles at 94° C. for 45 s, annealing at 55° C. for 1 min, and extension at 68° C. for 1 min, followed by 79 repeated cycles at 55° C. for 30 s for generation of a melting curve. Expression values of Runx2 II, Osx, and Ocn were normalized to the respective GAPDH levels, and all treatments were normalized to control (BMP-2 only) treatment in order to represent relative fold increase.

C2C12 cells [5] = experiment: Alkaline phosphatase (ALP) activity assay, BMP-2-induced osteoblast differentiation; type: cell-based; conditions: 10 μg/mL, without BMP-2, 4 days
Description: as §1, with “Final working concentrations were 50 ng/mL BMP-2 and a range of 0.1, 1, to 10 μg/mL heparin or PAs.” left out
ALP activity from C2C12 cell layer was measured using QUANTI-Blue ALP substrate (InvivoGen, San Diego, Calif.). […] The plate was incubated at 37° C. for 18 h and absorbance was measured at 630 nm on SpectraMax M5 Microplate Reader (Molecular Devices, Sunnyvale, Calif.). […] The absorbance values from QUANTI-Blue ALP assay was normalized by the amount of dsDNA in each sample, and the resulting values from heparin and PA treatments were normalized to control (BMP-2 only) to represent the relative fold increase (n=3, in triplicate experiments).

Compound	critical micelle concentration (supramolecular assembly detected at above) [1]	cytotoxicity (C2C12 cells [2])	number of ALP-positive cells (C2C12 cells [3])	osteoblastic differentiation by mRNA levels relative to BMP-2 alone (C2C12 cells [4])	ALP expression without BMP-2 (C2C12 cells [5])
CCCCCCCCCCCC(=O)NCCCC[C@H](NC(=O)[C@@H](NC(=O)[C@@H](NC(=O)[C@@H](NC(=O)[C@H](C)NC(=O)[C@H](C)NC(=O)[C@H](C)NC(=O)[C@H](CCC(=O)O)NC(=O)[C@H](CCC(=O)O)NC(=O)[C@H](CCC(=O)O)NC(=O)[C@H](CO)NC(=O)CNC(=O)CNC(=O)CNC(=O)[C@H](Cc1ccc(O)cc1)NC(=O)[C@@H]1CCCN1C(=O)[C@@H](NC(=O)[C@H](Cc1c[nH]cn1)NC(=O)[C@@H]1CCCN1C(=O)[C@H](CO)NC(=O)[C@@H](N)[C@@H](C)O)C(C)C)C(C)C)C(C)C)C(C)C)C(N)=O [BMP-2-binding PA, C12-(K)V3A3E3-SGGGYPVHPST-NH2] (H-TSPHVPYGGGSEEEAAAVVVK(Lauroyl)-NH2; N-terminus and C-terminus assumed)	above 666 nM and > 1.5 μg/mL	did not induce cytotoxicity	slight increase in the number of ALP-positive cells	enhanced osteoblastic differentiation	
CCCCCCCCCCCCCCCC(=O)N[C@H](C(=O)N[C@H](C(=O)N[C@H](C(=O)N[C@@H](C)C(=O)N[C@@H](C)C(=O)N[C@@H](C)C(=O)N[C@@H](CCC(=O)O)C(=O)N[C@@H](CCC(=O)O)C(=O)N[C@@H](CCC(=O)O)C(=O)O)C(C)C)C(C)C)C(C)C [diluent PA, C16-V3A3E3-COOH] (HELM PEPTIDE1{[CCCCCCCCCCCCCCCC(=O)[*:2]].V.V.V.A.A.A.E.E.E}$$$$V2.0)	above 1 μM and > 1.2 μg/mL	did not induce cytotoxicity	increased number of ALP-positive cells	enhanced osteoblastic differentiation	
heparin sodium [reference compound]		did not induce cytotoxicity	directly proportional association of the number of ALP-positive cells with heparin concentrations up to 10 μg/mL	enhanced osteoblastic differentiation	did not promote ALP expression
